Experimental data as given in article PMC3896271 (Beilstein Journal of Organic Chemistry, 2013).
Where “and” joins values, the source holds several entries; their conditions need not be identical. Equal entries are not always repeated.

Tests used:
human κ-OR [1] = target: T1, human κ-OR (Homo sapiens, UniProt P41145); experiment: Competitive inhibition of [3H]diprenorphine binding to CHO-κ-OR membranes; details: for Ki: displacement of [3H]diprenorphine from CHO cell membranes expressing human κ-OR, n = 3, in duplicate, read-out: Ki ± SEM
T1 construct: expressed in transfected cells; host or cells: CHO cells, stably transfected; membranes

rat μ opioid receptor = target: T2, rat μ opioid receptor (Rattus norvegicus, UniProt P33535); experiment: biochemical; assay type: binding
T2 construct: expressed in transfected cells; host or cells: CHO cells, stably transfected; membranes

mouse δ opioid receptor = target: T3, mouse δ opioid receptor (Mus musculus, UniProt P32300); experiment: biochemical; assay type: binding
T3 construct: expressed in transfected cells; host or cells: CHO cells, stably transfected; membranes

κ-OR (CHO-hκ-OR) = test system: T4, κ-OR (CHO-hκ-OR); experiment: Antagonism of dynorphin A (10 nM) at κ-OR in the [35S]GTPγS assay; assay type: biochemical, human; details: for [35S]GTPγS binding (% increase over basal), single experiments / [35S]GTPγS binding (% increase over basal), Mean: antagonist 3 μM; for [35S]GTPγS binding (% increase over basal), single experiments: without antagonist 130 and 296; for [35S]GTPγS binding (% increase over basal), Mean: without antagonist mean 213
T4 construct: expressed in transfected cells; host or cells: CHO cells, stably transfected; membranes

κ-OR = test system: κ-OR; set-up: method as in doi:10.1007/978-1-59745-197-0_6; details: cited from earlier work
human κ-OR [2] = target: T1, human κ-OR; experiment: biochemical

Row | SMILES | Ki (human κ-OR [1]) [nM] | affinity for µ-OR (in words) (rat μ opioid receptor) | affinity for δ-OR (in words) (mouse δ opioid receptor) | [35S]GTPγS binding (% increase over basal), single experiments (κ-OR (CHO-hκ-OR)) | [35S]GTPγS binding (% increase over basal), Mean (κ-OR (CHO-hκ-OR)) [% increase over basal] | antagonism of dynorphin A (in words) (κ-OR (CHO-hκ-OR); primary screen at 3 μM) | Ke (κ-OR) [pM] | inhibition at 3 µM (human κ-OR [1]; 3 µM, κ-OR, read-out: inhibition (displacement) of [3H]diprenorphine binding, initial screening) [%] | EC50 (human κ-OR [2]) [nM] | Emax (human κ-OR [2]) [%] | Ki (rat μ opioid receptor) [nM] | Ki (mouse δ opioid receptor) [nM]
1 | COC(=O)C1CC(OC(C)=O)C(=O)C2C1(C)CCC1C(=O)OC(c3ccoc3CN(C)C)CC12C (stereo not drawn) [compound 2] | > 1000 | no affinity | no affinity | 182 % increase over basal and 319 % increase over basal | 251 |  |  |  |  |  |  | 
2 | COC(=O)C1CC(OC(C)=O)C(=O)C2C1(C)CCC1C(=O)OC(c3cc(CO)oc3CO)CC12C (stereo not drawn) [compound 5] | > 1000 | no affinity | no affinity | 175 % increase over basal and 278 % increase over basal | 226 |  |  |  |  |  |  | 
3 | CC(C)[C@@H](CN1CC[C@@](C)(c2cccc(O)c2)[C@@H](C)C1)NC(=O)[C@H]1Cc2ccc(O)cc2CN1 [JDTic, reference compound] |  |  |  |  | 0 | abolished response to dynorphin A | < 40 |  |  |  |  | 
4 | COC(=O)C1CC(OC(C)=O)C(=O)C2C1(C)CCC1C(=O)OC(c3coc(CN(C)C)c3)CC12C (stereo not drawn) [compound 3] | > 1000 | no affinity | no affinity | 146 % increase over basal and 270 % increase over basal | 208 |  |  |  |  |  |  | 
5 | COC(=O)C1CC(OC(C)=O)C(=O)C2C1(C)CCC1C(=O)OC(c3ccoc3CO)CC12C (stereo not drawn) [compound 4] | 110 ± 10 |  |  | 249 % increase over basal and 415 % increase over basal | 332 |  |  | ≥ 50 | 345 ± 47 | 103 |  | 
6 | COC(=O)C1CC(OCOCCO)C(=O)C2C1(C)CCC1C(=O)OC(c3ccoc3)CC12C (stereo not drawn) [compound 6] | 12.7 ± 1.3 |  |  |  |  |  |  |  |  |  | > 1000 | > 1000
